The results in this text go back to PubChem BioAssay (NCI).

Test in all cases: DTP human tumour cell line panel, 48 h
Experiment [1] deals with A498 renal.
Experiment [2] concerns DU-145 prostate.
Experiment [3] relates to HL-60(TB) leukemia.
Experiment [4] relates to HOP-62 NSCLC.
Experiment [5] concerns HOP-92 NSCLC.
In experiment [6] the test system is HS 578T breast.
Experiment [7] concerns MDA-MB-231 breast.
For experiment [8], the system named is OVCAR-5 ovarian.
In experiment [9] the test system is OVCAR-8 ovarian.
Experiment [10] deals with SK-MEL-28 melanoma.

Values joined by “and” are separate entries in the source; they are usually repeats but may differ in a detail not shown here. Equal values may be shown once.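 Each compound was tested at five concentrations against cells in 96-well plates for 48 hours. GI50 is the concentration that inhibits growth by half. Definition used: TGI = concentration required for complete inhibition of growth.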

On to `CC(=O)OCC(=O)O[C@@H]1[C@H]2[C@@H](OC(=O)c3ccccc3)[C@@H](C)C[C@]2(O)[C@H](OC(C)=O)[C@@]2(C)C[C@]1(OC(C)=O)C[C@H]1C(=O)C(C)(C)[C@@H](OC(C)=O)[C@@H]12`, for which the TGI (in general, the concentration giving total growth inhibition) in experiment [1] is greater than 23.8 µM; in experiment [2] it was greater than 25 µM; in experiment [3], greater than 25 µM; in experiment [4] it was greater than 25 µM; in experiment [5] it was greater than 25 µM; in [6] it was greater than 25 µM. In addition, the TGI in experiment [7] was greater than 25 µM; in experiment [8], greater than 15.7 µM; in experiment [9], greater than 25 µM; in experiment [10] it was greater than 25 µM.
`CCCCCCCCCCCCNC(=O)CCC(NC(=O)c1ccc(N(C)Cc2cnc3nc(N)nc(N)c3n2)cc1)C(=O)NCCCCCCCCCCCC` (stereo unspecified): the TGI is greater than 100 µM in experiment [1]; greater than 100 µM in experiment [2]; 87.1 µM in [3]; 95.6 µM in experiment [4]; 30.9 µM in experiment [5]; greater than 100 µM in experiment [6]. The TGI in [7], in experiment [8], in [9] and in experiment [10] was greater than 100 µM each time.
In the case of `O=P1(C(O)/C=C/c2ccccc2)N(Cc2ccccc2)[C@@H]2CCCC[C@H]2N1Cc1ccccc1` (stereo partly specified), the TGI in experiment [1] came to 11.2 µM; in [2] it was 45.3 µM; in [3] it was 5.88 µM; in experiment [4], 34.6 µM; in experiment [5], 7.48 µM; in [6], 10.6 µM. Besides, the TGI was determined as 26.2 µM in experiment [7], 31.5 µM in experiment [8], 13.2 µM in experiment [9] and 28.1 µM in experiment [10].
On to `O=C1/C(=C/c2ccncc2)C(n2cccc2)c2c(Br)sc(Br)c21` (stereo unspecified), for which the total growth inhibition concentration (TGI) in experiment [1] is 39 µM; in [2], 12.9 µM; in [3], 4.68 µM; in experiment [4], 11.3 µM; in [5], 7.83 µM; in experiment [6], 18.1 µM. Further, the TGI in experiment [7] is 4.96 µM; in experiment [8], 29.2 µM; in experiment [9] it was 5.82 µM; in experiment [10], 8.73 µM.
With `C=C(C)[C@H]1CC(=O)/C(C)=C\CC/C(C)=C/CC[C@@]2(C)O[C@@H]2C1`, the TGI is greater than 100 µM in experiment [1]; 33.4 µM in [2]; 66.2 µM in experiment [3]; greater than 100 µM in [4]; greater than 100 µM in [5]; greater than 100 µM in [6]. In addition, the TGI in [7] is greater than 100 µM; in experiment [8], 94.8 µM; in [9] it was greater than 100 µM; in [10] it was 64.6 µM.
Take `Cc1cc(OCc2nnc3sc(NC(=O)c4ccccc4)nn23)ccc1Cl`: the TGI is greater than 100 µM in [1]; 58.4 µM in experiment [2]; greater than 100 µM in experiment [3]; 48.2 µM in experiment [4]; 34.8 µM in experiment [5]; 95.6 µM in experiment [6]. Besides, the TGI in experiment [7] was greater than 100 µM; in [8], greater than 100 µM; in [9], 47.1 µM; in [10], greater than 100 µM.
Turning to `O=P(OCc1ccccc1)(OCc1ccccc1)C(O)/C=C/c1ccccc1` (stereo unspecified), the TGI was 35.2 µM in experiment [1]; greater than 100 µM in [2]; 44.3 µM in experiment [3]; 55.5 µM in experiment [4]; 57.2 µM in experiment [5]; 45.1 µM in [6]. The TGI was 56.4 µM in [7], greater than 100 µM in experiment [8], 55.9 µM in experiment [9] and greater than 100 µM in experiment [10].
`NCCCCNCCCNC(=O)CNC(=O)CC(O)C(N)CCCC(NC(=O)C(CN)NC(=O)C(O)CNC(=O)CC(N)c1ccc(O)cc1)C(=O)O` (stereo unspecified): the TGI in experiment [1], in experiment [2], in [3], in experiment [4], in [5] and in [6] was greater than 10 µM throughout. Also, the TGI in experiment [7], in experiment [8], in experiment [9] and in experiment [10] was greater than 10 µM each time.
Regarding `COc1ccc(C2Oc3c(OC)cc(CCCO)cc3C2CO)cc1OC` (stereo unspecified), the GI50 (as a rule, the concentration at which growth is held to half of that of the control) in [1] was 26.1 µM and 73.4 µM. The TGI in experiment [1] was 88 µM and > 100 µM; in experiment [2], greater than 100 µM; in [3], greater than 100 µM; in experiment [4], greater than 100 µM; in experiment [5] it was greater than 100 µM; in experiment [6] it was greater than 100 µM. Moreover, the TGI in experiment [7], in experiment [8], in experiment [9] and in experiment [10] was greater than 100 µM each time.
Turning to `COc1ccc(OC/C(N=Cc2ccncc2)=N/NC(=O)c2ccncc2)cc1`, the TGI in experiment [1] is greater than 100 µM; in experiment [2], greater than 100 µM; in experiment [3], greater than 100 µM; in experiment [4] it was greater than 100 µM; in experiment [5] it was 96.4 µM; in experiment [6], greater than 100 µM. For the same compound, the TGI in experiment [7], in [8], in experiment [9] and in experiment [10] was greater than 100 µM throughout.
Consider `CCOc1ccc(NCC2CC/C(=C\C=C\c3ccccc3)C2=O)cc1` (stereo unspecified), for which the TGI in [1] is greater than 100 µM; in experiment [2] it was greater than 93.3 µM; in experiment [3], 47.8 µM; in [4] it was greater than 62 µM; in experiment [5], 45.5 µM; in [6] it was 65.2 µM. Also, the TGI in experiment [7] worked out at 24.7 µM; in experiment [8] it was 53.4 µM; in experiment [9], 42.9 µM; in [10], 35.5 µM.
Take `Cc1nc(SCC(N)=O)c2sc(=S)n(-c3ccccc3)c2n1`: the TGI in [1], in [2], in experiment [3], in [4], in experiment [5] and in experiment [6] was greater than 10 µM throughout. The TGI in experiment [7], in [8], in experiment [9] and in experiment [10] was greater than 10 µM throughout.
Consider `COc1cc2c3c(cc(Cl)nc3c1OC)C(=O)C(=O)N2`, for which the TGI was 30.2 µM in experiment [1]; 30.8 µM in experiment [2]; 3.56 µM in [3]; 34.7 µM in [4]; 3.44 µM in experiment [5]; greater than 100 µM in experiment [6]. Further, the TGI came out at 3.83 µM in experiment [7], 32.2 µM in [8], 43.9 µM in [9] and 33.7 µM in [10].
